# Measured values published in US8273383B2, “Methods and compositions for treatment of preeclampsia” (Children's Medical Center Corporation, priority 2004, dated 2012).
# Entries after “also recorded” stand apart in the source; their conditions may differ.
# Key:
# [1] = system: placenta cytotrophoblast cell line (HTR); test: Secretion of VEGF, sFLT-1 and PlGF by HTR cytotrophoblast cell line under hypoxia; assay type: cell-based
# Protocol: (§1) We have shown that 5 μM, 10 μM and 30 μM of 2-ME can reduce the secreted levels of VEGF up to 75% in a dose dependent manner in a placenta cytotrophoblast cell line (HTR) under hypoxia. […] Similarly, 5 μM, 10 μM and 30 μM of 2-ME can reduce the secreted sFLT-1 levels by up to 50% or more in a dose dependent manner in the same cell lines under hypoxia (see FIGS. 1-3).
# BeWo cells = test: Secretion of VEGF, sFLT-1 and PlGF by BeWo cytotrophoblast cell line under hypoxia; assay type: cell-based; conditions: 5 μM, 10 μM and 30 μM 2-ME
# [2] = system: HTR-8/SV neo trophoblast cells; test: Blot of protein expression in trophoblast cell lysates under hypoxic conditions; assay type: cell-based; conditions: 5 μM, 10 μM and 30 μM 2-ME
# Protocol: FIG. 5 is a blot showing that 2-methoxyestradiol treatment of HTR-8/SV neo trophoblast cells downregulations HIF-1α, VEGF165, Flt-1, and sFlt-1 expression in cell lysates under hypoxic conditions.
# as §1
# sFLT-1 and VEGF = test: Blood levels of sFLT-1 and VEGF in normal mice treated with 2-ME; assay type: in vivo; conditions: twice daily 30 μM 2-ME, blood samples
# Protocol: Normal mice were treated with 2-ME twice daily with 30 μM of 2-ME. Blood samples were then obtained and assayed for the level of sFLT-1 and VEGF. […] The 30 μM concentration represents approximately the normal physiological level of 2-ME that is found in the blood of pregnant women in the late second trimester or early third trimester through the end of pregnancy. At the end of a pregnancy, levels of 2-ME in non-preeclamptic subjects drops back to non pregnant levels, which are approximately 1-5 μM.
# [3] = system: cytotrophoblasts from the placenta; test: Expression of HIF-1α and angiogenic factors in cytotrophoblasts from the placenta (summary statement); assay type: cell-based
# [4] = system: tumor and non-tumor cell lines; conditions: wide variety of tumor and non-tumor cell lines; cited from earlier work
# [5] = administered orally; cited from earlier work
# HIF-1 = conditions: cited from earlier work
# [6] = 5 μM, 10 μM and 30 μM 2-ME, dose dependent, HTR cell line, hypoxia
structure (smiles),measurement,setting,value
"COc1cc2c(cc1O)CC[C@@H]1[C@@H]2CC[C@]2(C)[C@@H](O)CC[C@@H]12 [2-ME, 2-methoxyestradiol]",PlGF secretion levels,"[1]; 5 μM, 10 μM and 30 μM 2-ME, HTR cell line, hypoxia",reduce PlGF secretion levels in a dose dependent manner
same,PlGF secretion levels,"[1]; 5 μM, 10 μM and 30 μM 2-ME, HTR cell line, hypoxia, listed as 2-methoxyestradiol",reduction of PlGF secretion
same,reduction of secreted levels of VEGF,[1]; [6],up to 75%
same,reduction of secreted sFLT-1 levels,[1]; [6],≥ 50%
same,sFLT-1 production / secretion,[1]; HTR / HTR-8/SV neo cells,reduction of sFLT-1 production
same,secretion of VEGF,[1]; HTR / HTR-8/SV neo cells,reduces secretion of VEGF; also recorded: reduction
same,PlGF secretion levels,BeWo cells,reduce PlGF secretion levels in a dose dependent manner
same,reduction of secreted sFLT-1 levels,BeWo cells; dose dependent,≥ 50%
same,expression level of Flt-1 in cell lysates,[2],downregulated
same,expression level of HIF-1α in cell lysates,[2],downregulated
same,expression level of VEGF165 in cell lysates,[2],downregulated
same,expression level of sFlt-1 in cell lysates,[2],downregulated
same,expression level of Flt-1 in cell lysates,[2]; listed as 2-methoxyestradiol,downregulations
same,expression level of HIF-1α in cell lysates,[2]; listed as 2-methoxyestradiol,downregulations
same,expression level of VEGF165 in cell lysates,[2]; listed as 2-methoxyestradiol,downregulations
same,expression level of sFlt-1 in cell lysates,[2]; listed as 2-methoxyestradiol,downregulations
same,bound VEGF,sFLT-1 and VEGF,decrease in bound VEGF
same,reduction in sFLT-1 expression,sFLT-1 and VEGF,50%
same,expression of HIF-1α,[3],decreases
same,"expression of VEGF, PlGF, VEGF Receptor 1 (VEGFR1) and sFLT-1",[3],dramatic decrease
same,anti-proliferative activity,[4],potent
same,apoptosis,[4],induces apoptosis
same,antitumor and antiangiogenic activity,[5],exhibits antitumor and antiangiogenic activity
same,toxicity,[5],little or no toxicity
same,HIF-1 induced transcriptional activation of VEGF expression,HIF-1,inhibits
same,HIF-1 level,HIF-1; posttranscriptional level,downregulate
